Measurements as given in patent publication US9169257B2, “Crystal forms of adefovir dipivoxil and processes for preparing the same” (Daewoong Pharmaceutical Co., Ltd., priority 2009, dated 2015).
Values belong to the compound of their own block, whether it stands above or below them.

Experiments:
Type in all cases: physicochemical
[1] = Dissolution test of formulations; conditions: for Dissolution rate (%): formulation per Example 1 of WO00/35460, average of 3
Protocol: Using the novel Form B prepared in Example 11 of the present invention and the Form I prepared in Example 1 of WO99/04774 as raw materials, each formulation was manufactured by the technique disclosed in Example 1 of WO00/35460. Dissolution rates were compared in 0.01N HCl solution, pH 1.2 buffer solution (NaCl 20 g+37% HCl 68˜70 mL+distilled water 9 L), pH 4.0 buffer solution (sodium acetate 7.38 g+acetic acid 25 mL+distilled water 9 L), pH 6.0 buffer solution (KH2PO4 68 g+NaOH+distilled water 10 L) and pH 7 distilled water. Experiments were repeated 3 times for each case, and the average values are represented in Table 4.

[2] = Drying temperature conditions: transformation of the crystal form under vacuum drying; conditions: for Crystal form: vacuum 0.1˜1.0 Torr
Protocol: Form A prepared by Example 3 was treated with various drying temperatures and drying times under the vacuum condition of 0.1˜1.0 Torr, and the resulting trans-formation of the crystal form is represented in Table 1.

[3] = Stability test (HPLC content and decomposition products, 5° C. and accelerated condition over 6 months)
Protocol: The novel Forms A and B of Examples 3 and 11 of the present invention, and 50 mg of the authentic adefovir dipivosil (purity: 99.5%) were precisely weighed into a 50 mL volumetric flask and dissolved in diluent. After making up to the mark, they were used as sample solution and standard solution, respectively. Analysis was carried out according to the following conditions, so that the contents of the novel Forms A and B, and the amounts of decomposition products of adefovir dipivoxil formed were calculated by the peak areas. The changes in the contents of novel crystal forms and the amounts of decomposition products were measured under 5° C. and accelerated condition over 6 months.
Instrument: Waters HPLC model 2695
Column: Allech Mixed Mode Anion exchange C8, 7 um 100 A pore size, 250 mm×4.6 mm
Mobile phase mixing condition was operated as follows: For 19 min, mobile phase A was changed from 100% to 0%, and mobile phase B was changed from 0% to 100%. After elution with mobile phase B 100% till 36 min, the elution was changed from mobile phase A 0% to 100% till 46 min.
Mobile phase A: buffer/acetonitrile (70:30, v/v)
Mobile phase B: buffer/acetonitrile (50:50, v/v)
Buffer: 9.2 g of K2HPO4 and 47.2 g of KH2PO4 were dissolved in 2 L of purified water
Diluent: 3.4 g of KH2PO4 was dissolved in 1 L of purified water and adjusted to pH 3.0
Detector wave length: 260 nm

[4] = drying time 10 h, drying temperature 40° C.
[5] = Accelerated (25° C., 60% RH), 0 month
[6] = Accelerated (25° C., 60% RH), 1 month
[7] = Accelerated (25° C., 60% RH), 3 months
[8] = Accelerated (25° C., 60% RH), 6 months

Dissolution rate (%) ([1]; 0.01N HCl, 5 min): 88.11%
Dissolution rate (%) ([1]; 0.01N HCl, 10 min): 93.32%
Dissolution rate (%) ([1]; 0.01N HCl, 15 min): 95.48%
Dissolution rate (%) ([1]; 0.01N HCl, 30 min): 98.17%
Dissolution rate (%) ([1]; distilled water (pH 7), 5 min): 70.92%
Dissolution rate (%) ([1]; distilled water (pH 7), 10 min): 83.19%
Dissolution rate (%) ([1]; distilled water (pH 7), 15 min): 88.58%
Dissolution rate (%) ([1]; distilled water (pH 7), 30 min): 94.85%
Dissolution rate (%) ([1]; pH 1.2 buffer, 5 min): 95.24%
Dissolution rate (%) ([1]; pH 1.2 buffer, 10 min): 100.90%
Dissolution rate (%) ([1]; pH 1.2 buffer, 15 min): 101.38%
Dissolution rate (%) ([1]; pH 1.2 buffer, 30 min): 101.61%
Dissolution rate (%) ([1]; pH 4.0 buffer, 5 min): 83.38%
Dissolution rate (%) ([1]; pH 4.0 buffer, 10 min): 88.07%
Dissolution rate (%) ([1]; pH 4.0 buffer, 15 min): 89.76%
Dissolution rate (%) ([1]; pH 4.0 buffer, 30 min): 93.00%
Dissolution rate (%) ([1]; pH 6.0 buffer, 5 min): 74.89%
Dissolution rate (%) ([1]; pH 6.0 buffer, 10 min): 89.88%
Dissolution rate (%) ([1]; pH 6.0 buffer, 15 min): 94.58%
Dissolution rate (%) ([1]; pH 6.0 buffer, 30 min): 97.38%
Transformation of the crystal form ([2]; dried at 35 to 45° C.): not transformed to Form B
Crystal form [2, 4]: Form I
Crystal form ([2]; drying time 20 h, drying temperature 40° C.): Form I
SMILES: CC(C)(C)C(=O)OCOP(=O)(COCCN1C=NC2C(N)=NC=NC21)OCOC(=O)C(C)(C)C (single isomer, unassigned) [Form I, 9-[2-[phosphonomethoxy]ethyl]adenine bis-pivaloyloxymethyl ester, reference compound]

Content ([3]; 5° C., 0 month): 100.48%
Total amount of decomposition product ([3]; 5° C., 0 month): 0.38%
Content ([3]; 5° C., 1 month): 100.34%
Total amount of decomposition product ([3]; 5° C., 1 month): 0.31%
Content ([3]; 5° C., 3 months): 99.18%
Total amount of decomposition product ([3]; 5° C., 3 months): 0.36%
Content ([3]; 5° C., 6 months): 99.74%
Total amount of decomposition product ([3]; 5° C., 6 months): 0.43%
Content [3, 5]: 100.48%
Total amount of decomposition product [3, 5]: 0.38%
Content [3, 6]: 98.85%
Total amount of decomposition product [3, 6]: 0.42%
Content [3, 7]: 100.25%
Total amount of decomposition product [3, 7]: 0.50%
Content [3, 8]: 99.32%
Total amount of decomposition product [3, 8]: 0.66%
Dissolution rate (%) ([1]; 0.01N HCl, 5 min): 85.25%
Dissolution rate (%) ([1]; 0.01N HCl, 10 min): 97.19%
Dissolution rate (%) ([1]; 0.01N HCl, 15 min): 99.65%
Dissolution rate (%) ([1]; 0.01N HCl, 30 min): 101.12%
Dissolution rate (%) ([1]; distilled water (pH 7), 5 min): 83.57%
Dissolution rate (%) ([1]; distilled water (pH 7), 10 min): 96.96%
Dissolution rate (%) ([1]; distilled water (pH 7), 15 min): 98.73%
Dissolution rate (%) ([1]; distilled water (pH 7), 30 min): 98.96%
Dissolution rate (%) ([1]; pH 1.2 buffer, 5 min): 93.77%
Dissolution rate (%) ([1]; pH 1.2 buffer, 10 min): 101.06%
Dissolution rate (%) ([1]; pH 1.2 buffer, 15 min): 102.03%
Dissolution rate (%) ([1]; pH 1.2 buffer, 30 min): 101.71%
Dissolution rate (%) ([1]; pH 4.0 buffer, 5 min): 87.18%
Dissolution rate (%) ([1]; pH 4.0 buffer, 10 min): 96.99%
Dissolution rate (%) ([1]; pH 4.0 buffer, 15 min): 98.21%
Dissolution rate (%) ([1]; pH 4.0 buffer, 30 min): 98.98%
Dissolution rate (%) ([1]; pH 6.0 buffer, 5 min): 88.62%
Dissolution rate (%) ([1]; pH 6.0 buffer, 10 min): 95.33%
Dissolution rate (%) ([1]; pH 6.0 buffer, 15 min): 98.01%
Dissolution rate (%) ([1]; pH 6.0 buffer, 30 min): 100.32%
Dissolution rate compared with the formulation utilizing the existing Form I ([1]; formulations, summary of Table 4): superior
SMILES: CC(C)(C)C(=O)OCOP(=O)(COCCN1C=NC2C(N)=NC=NC21)OCOC(=O)C(C)(C)C (single isomer, unassigned) [Form B, 9-[2-[phosphonomethoxy]ethyl]adenine bis-pivaloyloxymethyl ester]

Content ([3]; 5° C., 0 month): 100.26%
Total amount of decomposition product ([3]; 5° C., 0 month): 0.27%
Content ([3]; 5° C., 1 month): 99.45%
Total amount of decomposition product ([3]; 5° C., 1 month): 0.25%
Content ([3]; 5° C., 3 months): 100.43%
Total amount of decomposition product ([3]; 5° C., 3 months): 0.25%
Content ([3]; 5° C., 6 months): 100.2%
Total amount of decomposition product ([3]; 5° C., 6 months): 0.32%
Content [3, 5]: 100.26%
Total amount of decomposition product [3, 5]: 0.27%
Content [3, 6]: 99.68%
Total amount of decomposition product [3, 6]: 0.38%
Content [3, 7]: 99.50%
Total amount of decomposition product [3, 7]: 0.43%
Content [3, 8]: 100.06%
Total amount of decomposition product [3, 8]: 0.60%
Transformation of the crystal form ([2]; dried at 35 to 45° C.): transformed from Form A to Form B
Crystal form ([2]; drying time 10 h, drying temperature 25° C.): Form A (2 hydrate)
Crystal form ([2]; drying time 10 h, drying temperature 35° C.): Form B
Crystal form [2, 4]: Form B
Crystal form ([2]; drying time 10 h, drying temperature 42° C.): Form B
Crystal form ([2]; drying time 10 h, drying temperature 45° C.): Form B
Crystal form ([2]; drying time 10 h, drying temperature 50° C.): Mixture of Form B +
Crystal form ([2]; drying time 48 h, drying temperature 25° C.): Form A (2 hydrate)
Transformation of the crystal form ([2]; vacuum dried at 25° C.): not transformed to other crystal forms
SMILES: CC(C)(C)C(=O)OCOP(=O)(COCCN1C=NC2C(N)=NC=NC21)OCOC(=O)C(C)(C)C (single isomer, unassigned) [Form A, 9-[2-[phosphonomethoxy]ethyl]adenine bis-pivaloyloxymethyl ester]
